The structures appear in SMILES notation.

Assay [1] relates to ATH-8 cell line. As to the kind of experiment: Tested against ATH8 cells infected with HIV (2 x 10 e3 virus partials per cell) at concentration of 20 µM; Completely protected. Conditions: Homo sapiens. The assay is classed as functional, cell-based.
The test system of assay [2] is ATH-8 cell line. As to the kind of experiment: Tested against ATH8 cells infected with HIV (2 x 10 e3 virus partials per cell) at concentrations ranging from 1 to 100 µM; No protection. To be noted: Homo sapiens. The assay is classed as functional, cell-based.

In the case of `Nc1ncnc2c1ncn2[C@H]1CC[C@@H](CO)O1`, in the assay on ATH-8 cell line [1], the Activity entry was “Completely protected”.
Regarding `CCC(CO)OCn1cnc2c(O)nc(N)nc21` (stereo not given), the Activity entry with ATH-8 cell line [2] is “No protection”.
The same measure, in the same setting: under `CCC(CO)OCn1cnc2c(O)ncnc21` (stereo not given) stands “No protection”.
Same read-out and setting: then `CCC(CO)OCn1cnc2c(N)ncnc21` (stereo not given), with “No protection”; and `CCC(CO)OCn1ccc(N)nc1=O` (stereo not given), with “No protection”.

The values above are taken from ChEMBL document CHEMBL1124341, “1',2'-seco-dideoxynucleosides as potential anti-HIV agents” (J Med Chem, 1989).
